# Data published in patent US20090105221A1, “MUSCARINIC RECEPTOR ANTAGONISTS” (RANBAXY LABORATORIES LIMITED, priority 2004, published 2009).
structure (smiles),measurement,value
O=C(NCC1C2CCC1CNC2)C(O)(c1ccccc1)c1ccccc1 (stereo not shown),melting point,85.2 °C
